US9695155B2, “Herbicidal substituted pyrimidinyloxy benzene compounds” (E. I. DU PONT DE NEMOURS AND COMPANY, priority 2013, dated 2017)

Experiments:
Experiment in all cases: Test E postemergence
[1] = tested on: corn; assay type: in vivo, Zea mays
How it was run: (§1)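 Compound in a non-phytotoxic solvent mixture with surfactant was applied preemergence to seeds in silt loam soil, or postemergence to plants 2 to 18 cm tall grown in peat-based potting medium. Plants were kept in a greenhouse for 14 to 21 days, then rated visually against untreated controls on a 0 (no effect) to 100 (complete control) scale.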

[2] = tested on: wild poinsettia; assay type: in vivo, Euphorbia heterophylla
How it was run: as §1

[3] = tested on: palmer pigweed; assay type: in vivo, Amaranthus palmeri
How it was run: as §1

[4] = tested on: waterhemp; assay type: in vivo, Amaranthus rudis
How it was run: as §1

[5] = tested on: Brazilian crabgrass; assay type: in vivo, Digitaria horizontalis
How it was run: as §1

[6] = tested on: fall panicum; assay type: in vivo, Panicum dichotomiflorum
How it was run: as §1

[7] = tested on: sandbur; assay type: in vivo, Cenchrus echinatus
How it was run: as §1

[8] = tested on: field bindweed; assay type: in vivo, Convolvulus arvensis
How it was run: as §1

[9] = tested on: hairy beggarticks; assay type: in vivo, Bidens pilosa
How it was run: as §1

[10] = Postemergence, 31 g ai/ha, scale 0 to 100
[11] = Postemergence, 62 g ai/ha, scale 0 to 100
[12] = Postemergence, 125 g ai/ha, scale 0 to 100
[13] = postemergence, 8 g ai/ha, scale 0 to 100, 0 no effect, 100 complete control
[14] = postemergence, 16 g ai/ha, scale 0 to 100, 0 no effect, 100 complete control

**Q.** Which corn plant response (injury) rating, 0-100 at 31 g/ha ([1]; Zea mays, post-emergence, Postemergence, 31 g ai/ha, scale 0 to 100) does the source give for Clc1cnn(-c2ccccc2Oc2ncc(Br)cn2)c1 [Compound 5, 5-bromo-2-[2-(4-chloro-1H-pyrazol-1-yl)phenoxy]pyrimidine] here?
**A.** 0%

**Q.** And the corn plant response (injury) rating, 0-100 at 62 g/ha ([1]; Zea mays, post-emergence, Postemergence, 62 g ai/ha, scale 0 to 100)?
**A.** 0%

**Q.** What about the corn plant response (injury) rating, 0-100 at 125 g/ha ([1]; Zea mays, post-emergence, Postemergence, 125 g ai/ha, scale 0 to 100) of the same molecule?
**A.** 0%

**Q.** What about the corn plant response (injury) rating, 0-100 at 250 g/ha ([1]; Zea mays, post-emergence, Postemergence, 250 g ai/ha, scale 0 to 100) of the same molecule?
**A.** 0%

**Q.** What about the corn plant response (injury) rating, 0-100 at 16 g/ha ([1]; Zea mays, post-emergence, postemergence, 16 g ai/ha, scale 0 to 100, 0 no effect, 100 complete control) of the same molecule?
**A.** 0%

**Q.** And the pest or weed control at 31 g/ha ([2]; Euphorbia heterophylla, post-emergence, Postemergence, 31 g ai/ha, scale 0 to 100, read-out: Plant response rating, Poinsettia, Wild)?
**A.** 20%

**Q.** What about the pest or weed control at 62 g/ha ([2]; Euphorbia heterophylla, post-emergence, Postemergence, 62 g ai/ha, scale 0 to 100, read-out: Plant response rating, Poinsettia, Wild) of the same molecule?
**A.** 30%

**Q.** And the pest or weed control at 125 g/ha ([2]; Euphorbia heterophylla, post-emergence, Postemergence, 125 g ai/ha, scale 0 to 100, read-out: Plant response rating, Poinsettia, Wild)?
**A.** 35%

**Q.** What about the pest or weed control at 250 g/ha ([2]; Euphorbia heterophylla, post-emergence, Postemergence, 250 g ai/ha, scale 0 to 100, read-out: Plant response rating, Poinsettia, Wild) of the same molecule?
**A.** 50%

**Q.** What about the pest or weed control at 16 g/ha ([2]; Euphorbia heterophylla, post-emergence, postemergence, 16 g ai/ha, scale 0 to 100, 0 no effect, 100 complete control, read-out: Plant response rating, Poinsettia, Wild) of the same molecule?
**A.** 10%

**Q.** What about the pest or weed control at 31 g/ha ([3]; post-emergence, Postemergence, 31 g ai/ha, scale 0 to 100, read-out: Plant response rating, Pigweed, Palmer) of the same molecule?
**A.** 75%

**Q.** What about the pest or weed control at 62 g/ha ([3]; post-emergence, Postemergence, 62 g ai/ha, scale 0 to 100, read-out: Plant response rating, Pigweed, Palmer) of the same molecule?
**A.** 85%

**Q.** What about the pest or weed control at 125 g/ha ([3]; post-emergence, Postemergence, 125 g ai/ha, scale 0 to 100, read-out: Plant response rating, Pigweed, Palmer) of the same molecule?
**A.** 95%

**Q.** And the pest or weed control at 250 g/ha ([3]; post-emergence, Postemergence, 250 g ai/ha, scale 0 to 100, read-out: Plant response rating, Pigweed, Palmer)?
**A.** 98%

**Q.** And the pest or weed control at 16 g/ha ([3]; post-emergence, postemergence, 16 g ai/ha, scale 0 to 100, 0 no effect, 100 complete control, read-out: Plant response rating, Pigweed, Palmer)?
**A.** 60%

**Q.** What about the pest or weed control at 31 g/ha ([4]; Amaranthus tuberculatus, post-emergence, Postemergence, 31 g ai/ha, scale 0 to 100, read-out: Plant response rating, Waterhemp) of the same molecule?
**A.** 80%

**Q.** What about the pest or weed control at 62 g/ha ([4]; Amaranthus tuberculatus, post-emergence, Postemergence, 62 g ai/ha, scale 0 to 100, read-out: Plant response rating, Waterhemp) of the same molecule?
**A.** 90%

**Q.** What about the pest or weed control at 125 g/ha ([4]; Amaranthus tuberculatus, post-emergence, Postemergence, 125 g ai/ha, scale 0 to 100, read-out: Plant response rating, Waterhemp) of the same molecule?
**A.** 95%

**Q.** And the pest or weed control at 250 g/ha ([4]; Amaranthus tuberculatus, post-emergence, Postemergence, 250 g ai/ha, scale 0 to 100, read-out: Plant response rating, Waterhemp)?
**A.** 98%

**Q.** And the pest or weed control at 16 g/ha ([4]; Amaranthus tuberculatus, post-emergence, postemergence, 16 g ai/ha, scale 0 to 100, 0 no effect, 100 complete control, read-out: Plant response rating, Waterhemp)?
**A.** 70%

**Q.** And the pest or weed control at 31 g/ha ([5]; Digitaria horizontalis, post-emergence, Postemergence, 31 g ai/ha, scale 0 to 100, read-out: Plant response rating, Crabgrass, Brazil)?
**A.** 5%

**Q.** And the pest or weed control at 62 g/ha ([5]; Digitaria horizontalis, post-emergence, Postemergence, 62 g ai/ha, scale 0 to 100, read-out: Plant response rating, Crabgrass, Brazil)?
**A.** 10%

**Q.** And the pest or weed control at 125 g/ha ([5]; Digitaria horizontalis, post-emergence, Postemergence, 125 g ai/ha, scale 0 to 100, read-out: Plant response rating, Crabgrass, Brazil)?
**A.** 10%

**Q.** And the pest or weed control at 250 g/ha ([5]; Digitaria horizontalis, post-emergence, Postemergence, 250 g ai/ha, scale 0 to 100, read-out: Plant response rating, Crabgrass, Brazil)?
**A.** 20%

**Q.** What about the pest or weed control at 16 g/ha ([5]; Digitaria horizontalis, post-emergence, postemergence, 16 g ai/ha, scale 0 to 100, 0 no effect, 100 complete control, read-out: Plant response rating, Crabgrass, Brazil) of the same molecule?
**A.** 0%

**Q.** And the pest or weed control at 62 g/ha ([6]; Panicum dichotomiflorum, post-emergence, Postemergence, 62 g ai/ha, scale 0 to 100, read-out: Plant response rating, Panicum, Fall)?
**A.** 0%

**Q.** And the pest or weed control at 125 g/ha ([6]; Panicum dichotomiflorum, post-emergence, Postemergence, 125 g ai/ha, scale 0 to 100, read-out: Plant response rating, Panicum, Fall)?
**A.** 0%

**Q.** What about the pest or weed control at 250 g/ha ([6]; Panicum dichotomiflorum, post-emergence, Postemergence, 250 g ai/ha, scale 0 to 100, read-out: Plant response rating, Panicum, Fall) of the same molecule?
**A.** 0%

**Q.** What about the pest or weed control at 16 g/ha ([6]; Panicum dichotomiflorum, post-emergence, postemergence, 16 g ai/ha, scale 0 to 100, 0 no effect, 100 complete control, read-out: Plant response rating, Panicum, Fall) of the same molecule?
**A.** 0%

**Q.** And the pest or weed control at 31 g/ha ([7]; Cenchrus echinatus, post-emergence, Postemergence, 31 g ai/ha, scale 0 to 100, read-out: Plant response rating, Sandbur)?
**A.** 0%

**Q.** What about the pest or weed control at 62 g/ha ([7]; Cenchrus echinatus, post-emergence, Postemergence, 62 g ai/ha, scale 0 to 100, read-out: Plant response rating, Sandbur) of the same molecule?
**A.** 0%

**Q.** What about the pest or weed control at 125 g/ha ([7]; Cenchrus echinatus, post-emergence, Postemergence, 125 g ai/ha, scale 0 to 100, read-out: Plant response rating, Sandbur) of the same molecule?
**A.** 10%

**Q.** And the pest or weed control at 250 g/ha ([7]; Cenchrus echinatus, post-emergence, Postemergence, 250 g ai/ha, scale 0 to 100, read-out: Plant response rating, Sandbur)?
**A.** 20%

**Q.** What about the pest or weed control at 16 g/ha ([7]; Cenchrus echinatus, post-emergence, postemergence, 16 g ai/ha, scale 0 to 100, 0 no effect, 100 complete control, read-out: Plant response rating, Sandbur) of the same molecule?
**A.** 0%

**Q.** What about the pest or weed control at 31 g/ha ([8]; Convolvulus arvensis, post-emergence, Postemergence, 31 g ai/ha, scale 0 to 100, read-out: Plant response rating, Field Bindweed) of the same molecule?
**A.** 20%

**Q.** And the pest or weed control at 62 g/ha ([8]; Convolvulus arvensis, post-emergence, Postemergence, 62 g ai/ha, scale 0 to 100, read-out: Plant response rating, Field Bindweed)?
**A.** 30%

**Q.** And the pest or weed control at 125 g/ha ([8]; Convolvulus arvensis, post-emergence, Postemergence, 125 g ai/ha, scale 0 to 100, read-out: Plant response rating, Field Bindweed)?
**A.** 30%

**Q.** And the pest or weed control at 250 g/ha ([8]; Convolvulus arvensis, post-emergence, Postemergence, 250 g ai/ha, scale 0 to 100, read-out: Plant response rating, Field Bindweed)?
**A.** 40%

**Q.** And the pest or weed control at 16 g/ha ([8]; Convolvulus arvensis, post-emergence, postemergence, 16 g ai/ha, scale 0 to 100, 0 no effect, 100 complete control, read-out: Plant response rating, Field Bindweed)?
**A.** 10%

**Q.** And the pest or weed control at 31 g/ha ([9]; Bidens pilosa, post-emergence, Postemergence, 31 g ai/ha, scale 0 to 100, read-out: Plant response rating, Beggarticks)?
**A.** 40%

**Q.** And the pest or weed control at 62 g/ha ([9]; Bidens pilosa, post-emergence, Postemergence, 62 g ai/ha, scale 0 to 100, read-out: Plant response rating, Beggarticks)?
**A.** 60%

**Q.** And the pest or weed control at 125 g/ha ([9]; Bidens pilosa, post-emergence, Postemergence, 125 g ai/ha, scale 0 to 100, read-out: Plant response rating, Beggarticks)?
**A.** 60%

**Q.** And the pest or weed control at 250 g/ha ([9]; Bidens pilosa, post-emergence, Postemergence, 250 g ai/ha, scale 0 to 100, read-out: Plant response rating, Beggarticks)?
**A.** 70%

**Q.** And the pest or weed control at 16 g/ha ([9]; Bidens pilosa, post-emergence, postemergence, 16 g ai/ha, scale 0 to 100, 0 no effect, 100 complete control, read-out: Plant response rating, Beggarticks)?
**A.** 30%

**Q.** Which results are given for Clc1cnc(Oc2ccccc2-n2cc(Br)nn2)nc1 [Compound 223]?
**A.** Plant response rating, Corn [1, 10]: 0; Plant response rating, Corn [1, 11]: 0; Plant response rating, Corn [1, 12]: 5; Plant response rating, Corn [1, 13]: 0; Plant response rating, Corn [1, 14]: 0; Plant response rating, Poinsettia, Wild [2, 10]: 40; Plant response rating, Poinsettia, Wild [2, 11]: 50; Plant response rating, Poinsettia, Wild [2, 12]: 60; Plant response rating, Poinsettia, Wild [2, 13]: 30; Plant response rating, Poinsettia, Wild [2, 14]: 30; Plant response rating, Pigweed, Palmer [3, 10]: 50; Plant response rating, Pigweed, Palmer [3, 11]: 60; Plant response rating, Pigweed, Palmer [3, 12]: 85; Plant response rating, Pigweed, Palmer [3, 13]: 15; Plant response rating, Pigweed, Palmer [3, 14]: 25; Plant response rating, Waterhemp [4, 10]: 70; Plant response rating, Waterhemp [4, 11]: 85; Plant response rating, Waterhemp [4, 12]: 98; Plant response rating, Waterhemp [4, 13]: 60; Plant response rating, Waterhemp [4, 14]: 50; Plant response rating, Crabgrass, Brazil [5, 10]: 10; Plant response rating, Crabgrass, Brazil [5, 11]: 10; Plant response rating, Crabgrass, Brazil [5, 12]: 20; Plant response rating, Crabgrass, Brazil [5, 13]: 0; Plant response rating, Crabgrass, Brazil [5, 14]: 0; Plant response rating, Panicum, Fall [6, 10]: 0; Plant response rating, Panicum, Fall [6, 11]: 0; Plant response rating, Panicum, Fall [6, 12]: 0; Plant response rating, Panicum, Fall [6, 13]: 0; Plant response rating, Panicum, Fall [6, 14]: 0; Plant response rating, Sandbur [7, 10]: 0; Plant response rating, Sandbur [7, 11]: 0; Plant response rating, Sandbur [7, 12]: 0; Plant response rating, Sandbur [7, 13]: 0; Plant response rating, Sandbur [7, 14]: 0; Plant response rating, Field Bindweed [8, 10]: 35; Plant response rating, Field Bindweed [8, 11]: 50; Plant response rating, Field Bindweed [8, 12]: 50; Plant response rating, Field Bindweed [8, 13]: 20; Plant response rating, Field Bindweed [8, 14]: 20; Plant response rating, Beggarticks [9, 10]: 60; Plant response rating, Beggarticks [9, 11]: 75; Plant response rating, Beggarticks [9, 12]: 85; Plant response rating, Beggarticks [9, 13]: 40; Plant response rating, Beggarticks [9, 14]: 50
